Where a name gives a salt, the structure may show the parent alone. Read-outs that look alike come from different tables or passages of the source.
How the values were obtained:
S. aureus 17740 = assay: Treatment Effect on the Systemic Infection; format: in vivo, NMRI mice; conditions: Staphylococcus aureus, in Mus musculus, 240 h, S. aureus 17740, immediately and 4 hours after infection, survival on 10th day
Method: (§1) 10 fold of the pathogens which lead to 100% lethality were injected intraperitoneally to male and female NMRI mice weighing 18 to 20 g. Immediately and 4 hours after injection, the dose of test compounds, which was determined by two-fold serial dilution method, was administered orally or subcutaneously to the mice, and on the 10th day, the effect was evaluated in terms of ED50 calculated from the number of survived mice by the probit analysis.

P. mirabilis = assay: Treatment Effect on the Systemic Infection; format: in vivo, NMRI mice; conditions: Proteus mirabilis, in Mus musculus, 240 h, P. mirabilis, immediately and 4 hours after infection, survival on 10th day
Method: as §1

[1] = system: Pseudomonas aeruginosa 1592E; assay: In Vitro Anti-Bacterial Activity Test (MIC, agar dilution); format: cell-based; conditions: Muller-Hinton agar, 37° C., 18 hours, read-out: MIC
Method in brief: (§2)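 Agar-incorporation MIC: Muller-Hinton medium, 10^7 C.F.U./ml inoculum, 18 h incubation at 37° C., growth checked by eye; ciprofloxacin reference.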

Enterobacter cloacae P99 = assay: as above; format: cell-based; conditions: Enterobacter cloacae, P99, 18 h
Method in brief: (§3)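 Each strain, at 10^7 C.F.U./ml, was spotted onto Muller-Hinton agar carrying serial compound dilutions. Growth after an 18-hour incubation at 37° C. defined the minimum inhibitory concentration.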

[2] = system: Streptococcus faecium MD8b; assay: as above; format: cell-based; conditions: Enterococcus faecium, Muller-Hinton agar, 37° C., 18 hours, read-out: MIC
Method in brief: as §2

Salmonella typhimurium = assay: as above; format: cell-based; conditions: Salmonella enterica; Salmonella typhimurium; Muller-Hinton agar, 37° C., 18 hours; read-out: MIC
Method in brief: as §2

[3] = system: Pseudomonas aeruginosa 1771; assay: as above; format: cell-based; conditions: Pseudomonas aeruginosa 1771; Muller-Hinton agar, 37° C., 18 hours; read-out: MIC
Method in brief: as §2

Escherichia coli DC0 = assay: as above; format: cell-based; conditions: Muller-Hinton agar, 37° C., 18 hours, read-out: MIC
Method in brief: as §2

Escherichia coli DC2 = assay: as above; format: cell-based; conditions: Escherichia coli, DC2, 18 h
Method in brief: as §2

[4] = system: Pseudomonas aeruginosa 1771M; assay: as above; format: cell-based; conditions: Pseudomonas aeruginosa, 1771M, 18 h, Muller-Hinton agar, 37° C.
Method in brief: as §2

[5] = system: Staphylococcus aureus SG511; assay: as above; format: cell-based; conditions: Staphylococcus aureus SG511; Muller-Hinton agar, 37° C., 18 hours; read-out: MIC
Method in brief: as §2

Escherichia coli 078 = assay: as above; format: cell-based; conditions: Escherichia coli 078; Muller-Hinton agar, 37° C., 18 hours; read-out: MIC
Method in brief: as §2

Klebsiella oxytoca 1082E = assay: as above; format: cell-based; conditions: Klebsiella oxytoca 1082E; Muller-Hinton agar, 37° C., 18 hours; read-out: MIC
Method in brief: as §2

[6] = system: Klebsiella aerogenes 1522E; assay: as above; format: cell-based; conditions: Klebsiella aerogenes, 1522E, 18 h, Klebsiella aerogenes 1522E; Muller-Hinton agar, 37° C., 18 hours; read-out: MIC
Method in brief: as §2

[7] = system: Staphylococcus aureus 285; assay: as above; format: cell-based; conditions: Staphylococcus aureus, 285, 18 h, Staphylococcus aureus 285; Muller-Hinton agar, 37° C., 18 hours; read-out: MIC
Method in brief: as §2

[8] = system: Pseudomonas aeruginosa 9027; assay: as above; format: cell-based; conditions: Muller-Hinton agar, 37° C., 18 hours, read-out: MIC
Method in brief: as §2

Escherichia coli 1507E = assay: as above; format: cell-based; conditions: Muller-Hinton agar, 37° C., 18 hours, read-out: MIC
Method in brief: as §2

[9] = system: Streptococcus pyogenes 77A; assay: as above; format: cell-based; conditions: Streptococcus pyogenes 77A; Muller-Hinton agar, 37° C., 18 hours; read-out: MIC
Method in brief: as §2

Escherichia coli TEM = assay: as above; format: cell-based; conditions: Escherichia coli, 18 h, Muller-Hinton agar, 37° C.
Method in brief: as §3

[10] = system: Enterobacter cloacae 1321E; assay: as above; format: cell-based; conditions: Enterobacter cloacae 1321E; Muller-Hinton agar, 37° C., 18 hours; read-out: MIC
Method in brief: as §2

[11] = system: Streptococcus pyogenes 308A; assay: as above; format: cell-based; conditions: Muller-Hinton agar, 37° C., 18 hours, read-out: MIC
Method in brief: as §2

[12] = system: Staphylococcus aureus 503; assay: as above; format: cell-based; conditions: Staphylococcus aureus 503; Muller-Hinton agar, 37° C., 18 hours; read-out: MIC
Method in brief: as §2

Acute Toxicity Test = conditions: mouse, in vivo, ICR mice, 14th day
Method: Test compounds were administered to ICR mice weighing 20 to 25 g. On 14th day, LD50 was calculated from the number of survived mice by the probit analysis.

[13] = oral, read-out: ED50 Oral Administration
[14] = sc, subcutaneous, read-out: ED50 Subcutaneous Injection

**Q.** With `N[C@H]1CCN(c2c(F)cc3c(=O)c(C(=O)C[N+](=O)[O-])cn(C4CC4)c3c2Cl)C1` [Example 13, 1-cyclopropyl-6-fluoro-8-chloro-7-(3-3S-aminopyrrolidin-1-yl)-3-(2-nitroacetyl)-1,4-dihydro-4-oxoquinoline hydrochloride] as the molecule, how does the ED50 (S. aureus 17740; [13]) read?
**A.** 128 mg/kg

**Q.** What about the ED50 (S. aureus 17740; [14]) of the same molecule?
**A.** 16.8 mg/kg

**Q.** What about the ED50 (P. mirabilis; [13]) of the same molecule?
**A.** 0.21 mg/kg

**Q.** What about the ED50 (P. mirabilis; [14]) of the same molecule?
**A.** 0.08 mg/kg

**Q.** What about the MIC [1] of the same molecule?
**A.** 0.195 µg/mL

**Q.** And the MIC (Enterobacter cloacae P99)?
**A.** 4 ng/mL

**Q.** What about the MIC [2] of the same molecule?
**A.** 0.195 µg/mL

**Q.** And the MIC (Salmonella typhimurium)?
**A.** < 2 ng/mL

**Q.** What about the MIC [3] of the same molecule?
**A.** 0.195 µg/mL

**Q.** What about the MIC (Escherichia coli DC0) of the same molecule?
**A.** 0.049 µg/mL

**Q.** What about the MIC (Escherichia coli DC2) of the same molecule?
**A.** 0.013 µg/mL

**Q.** What about the MIC [4] of the same molecule?
**A.** 0.049 µg/mL

**Q.** And the MIC [5]?
**A.** 0.025 µg/mL

**Q.** And the MIC (Escherichia coli 078)?
**A.** < 2 ng/mL

**Q.** And the MIC (Klebsiella oxytoca 1082E)?
**A.** < 2 ng/mL

**Q.** And the MIC [6]?
**A.** 0.013 µg/mL

**Q.** What about the MIC [7] of the same molecule?
**A.** 0.025 µg/mL

**Q.** What about the MIC [8] of the same molecule?
**A.** 0.195 µg/mL

**Q.** What about the MIC (Escherichia coli 1507E) of the same molecule?
**A.** 4 ng/mL

**Q.** What about the MIC [9] of the same molecule?
**A.** 0.195 µg/mL

**Q.** What about the MIC (Escherichia coli TEM) of the same molecule?
**A.** < 2 ng/mL

**Q.** And the MIC [10]?
**A.** < 2 ng/mL

**Q.** What about the MIC [11] of the same molecule?
**A.** 0.195 µg/mL

**Q.** And the MIC [12]?
**A.** 0.049 µg/mL

**Q.** What about the LD50 at 336 h (Acute Toxicity Test; ip, read-out: Acute Toxicity LD50, Peritomeo Injection) of the same molecule?
**A.** 580 mg/kg

**Q.** What about the LD50 at 336 h (Acute Toxicity Test; oral, read-out: Acute Toxicity LD50, Oral Administration) of the same molecule?
**A.** 3800 mg/kg
